Like-named read-outs stand apart in the source and are kept apart here. *1 amine or outer side, *2 acyl side, *3 side chain or, on linkers, in order; H or OH if unused. Where a SMILES comes first, the peptide text is derived from it. Side-chain parts run from the residue outwards. [ ]: non-standard residue; d: D form. The star is where a group is joined. C18 diacid = O=C(O)CCCCCCCCCCCCCCCCC(=O)*; γGlu = O=C(O)[C@H](CCC(=O)[*:2])N[*:1]; Dap = NC[C@H](N)C(=O)O; AEEA = NCCOCCOCC(=O)O; Aib = CC(C)(N)C(=O)O
How the values were obtained:
[1] = target: T1, human GLP-1 R (Homo sapiens, UniProt P43220); assay: Human GLP-1 receptor (GLP-1 R) activity assay, cAMP induction (AlphaScreen) in HEK293 cells; format: cell-based; details: read-out: hGLP1-R cAMP EC50 average value
T1 construct: expressed in transfected cells
Description: (§1) Human GIP Receptor (GIP R) and GLP-1 Receptor (GLP-1 R) Activity Assay
(§2) In vitro effects of peptide conjugates of the invention were assessed by measuring the induction of cAMP following stimulation of the respective receptor by GIP, GLP1 or analogues of these, as outlined in the invention, using the AlphaSceen® cAMP kit from Perkin-Elmer according to instructions. Briefly, HEK293 cells expressing the human GIP R or GLP-1 R (stable cell lines generated through transfection of the cDNA for human GIP R or GLP-1 and selection of stable clones) were seeded at 30,000 cells/well in 96-well microtiter plates coated with 0.01% poly-L-lysine, and grown for 1 day in culture in 200 μl growth medium (DMEM, 10% FCS, Penicillin (100 IU/ml), Streptomycin (100 μg/ml)). On the day of analysis, growth medium was removed and the cells were washed once with […] Tyrode's buffer (Tyrode's Salts (9.6 g/l), 10 mM HEPES, pH 7.4). […] The Assay buffer was removed and cells are lysed in 80 μl Lysis buffer (0.1% w/v BSA, 5 mM HEPES, 0.3% v/v Tween-20) per well. From each well 10 μl lysed cells was transferred to a 384-well plate and mixed with 15 μl bead-mix (1 Unit/15 μl anti-cAMP Acceptor Beads, 1 Unit/15 μl Donor Beads, and 1 Unit/15 μl Biotinylated cAMP in Assay Buffer). The plates were mixed and incubated in the dark for an hour at room temperature before measuring using an Envision™ plate reader (Perkin-Elmer).
(§3) The resulting cAMP curves were plotted as absolute cAMP concentrations (nM) over log (test compound concentration) and analyzed using the curve fitting program XLfit.
(§4) Parameters calculated to describe both the potency as well as the agonistic activity of each test compound on the receptors were:
(§5) EC50, a concentration resulting in a half-maximal elevation of cAMP levels, reflecting the potency of the test compound.

[2] = target: T2, human GIP R (Homo sapiens, UniProt P48546); assay: Human GIP receptor (GIP R) activity assay, cAMP induction (AlphaScreen) in HEK293 cells; format: cell-based; details: read-out: hGIP-R cAMP EC50 average value
T2 construct: expressed in transfected cells
T2 sequence (P48546 22-466): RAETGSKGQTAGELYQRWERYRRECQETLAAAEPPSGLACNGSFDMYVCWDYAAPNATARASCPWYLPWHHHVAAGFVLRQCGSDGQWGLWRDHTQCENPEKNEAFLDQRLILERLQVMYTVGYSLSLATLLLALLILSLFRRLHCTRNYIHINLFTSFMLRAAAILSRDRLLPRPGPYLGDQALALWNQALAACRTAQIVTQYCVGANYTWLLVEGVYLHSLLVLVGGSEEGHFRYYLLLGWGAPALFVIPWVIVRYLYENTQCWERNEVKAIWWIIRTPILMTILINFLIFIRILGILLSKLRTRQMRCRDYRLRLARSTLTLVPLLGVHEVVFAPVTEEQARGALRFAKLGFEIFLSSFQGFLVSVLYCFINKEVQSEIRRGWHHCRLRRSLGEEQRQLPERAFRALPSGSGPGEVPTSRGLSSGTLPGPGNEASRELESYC
Description: as §1, §2, §3, §4, §5

[3] = Table 2, HEK293 cells expressing human GLP-1 R
[4] = Table 2a, secondary assay study
[5] = Table 2, HEK293 cells expressing human GIP R
[6] = Table 3, most comprehensive data

T1 sequence (P43220 24-463): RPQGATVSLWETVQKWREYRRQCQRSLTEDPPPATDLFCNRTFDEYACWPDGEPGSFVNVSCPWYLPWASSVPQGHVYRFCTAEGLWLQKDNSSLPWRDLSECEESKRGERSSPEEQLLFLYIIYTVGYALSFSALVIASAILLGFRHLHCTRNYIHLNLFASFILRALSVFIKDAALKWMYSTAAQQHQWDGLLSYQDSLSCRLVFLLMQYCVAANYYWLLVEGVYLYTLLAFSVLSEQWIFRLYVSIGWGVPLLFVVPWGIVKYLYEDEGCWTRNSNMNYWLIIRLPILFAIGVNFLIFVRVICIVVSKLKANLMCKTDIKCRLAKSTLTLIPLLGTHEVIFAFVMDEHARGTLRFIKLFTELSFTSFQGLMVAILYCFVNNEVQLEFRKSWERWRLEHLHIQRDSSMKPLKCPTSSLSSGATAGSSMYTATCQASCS

Row | SMILES | EC50 [1, 3] | EC50 [1, 4] | EC50 [2, 5] | EC50 [2, 4] | EC50 [2, 6]
1 | CC[C@H](C)[C@H](NC(=O)[C@H](CO)NC(=O)[C@H](Cc1ccc(O)cc1)NC(=O)[C@H](CC(=O)O)NC(=O)[C@H](CO)NC(=O)[C@@H](NC(=O)[C@H](Cc1ccccc1)NC(=O)[C@@H](NC(=O)CNC(=O)[C@H](CCC(=O)O)NC(=O)C(C)(C)NC(=O)[C@@H](N)Cc1ccc(O)cc1)[C@@H](C)O)[C@@H](C)O)C(=O)N[C@@H](Cc1ccc(O)cc1)C(=O)N[C@@H](CC(C)C)C(=O)N[C@@H](CC(=O)O)C(=O)N[C@@H](CCCCN)C(=O)N[C@@H](CCCCNC(=O)COCCOCCNC(=O)COCCOCCNC(=O)CCCCCCCCCCCCCCCCC(=O)O)C(=O)N[C@@H](C)C(=O)N[C@@H](CCC(N)=O)C(=O)N[C@@H](CCCNC(=N)N)C(=O)N[C@@H](C)C(=O)N[C@@H](Cc1ccccc1)C(=O)N[C@H](C(=O)N[C@@H](CCC(=O)O)C(=O)N[C@@H](Cc1c[nH]c2ccccc12)C(=O)N[C@@H](CC(C)C)C(=O)N[C@@H](CC(C)C)C(=O)N[C@@H](C)C(=O)N[C@@H](CCC(N)=O)C(=O)NCC(=O)N1CCC[C@H]1C(=O)N[C@@H](CO)C(=O)N[C@@H](CO)C(=O)NCC(=O)N[C@@H](C)C(=O)N1CCC[C@H]1C(=O)N1CCC[C@H]1C(=O)N1CCC[C@H]1C(=O)N[C@@H](CO)C(N)=O)C(C)C [Compound 5] (H-Y[Aib]EGTFTSDYSIYLDKK([AEEA-AEEA-C18 diacid])AQRAFVEWLLAQGPSSGAPPPS-NH2) | 0.014 nM | 0.014 nM | 0.012 nM | 0.011 nM | –
2 | CC[C@H](C)[C@H](NC(=O)[C@H](CO)NC(=O)[C@H](Cc1ccc(O)cc1)NC(=O)[C@H](CC(=O)O)NC(=O)[C@H](CO)NC(=O)[C@@H](NC(=O)[C@H](Cc1ccccc1)NC(=O)[C@@H](NC(=O)CNC(=O)[C@H](CCC(=O)O)NC(=O)C(C)(C)NC(=O)[C@@H](N)Cc1ccc(O)cc1)[C@@H](C)O)[C@@H](C)O)C(=O)N[C@@H](Cc1ccc(O)cc1)C(=O)N[C@@H](CC(C)C)C(=O)N[C@@H](CC(=O)O)C(=O)N[C@@H](CCCCN)C(=O)N[C@@H](CCCCNC(=O)COCCOCCNC(=O)COCCOCCNC(=O)COCCOCCNC(=O)CC[C@H](NC(=O)CCCCCCCCCCCCCCCCC(=O)O)C(=O)O)C(=O)N[C@@H](C)C(=O)N[C@@H](CCC(N)=O)C(=O)N[C@@H](CCCNC(=N)N)C(=O)N[C@@H](C)C(=O)N[C@@H](Cc1ccccc1)C(=O)N[C@H](C(=O)N[C@@H](CCC(=O)O)C(=O)N[C@@H](Cc1c[nH]c2ccccc12)C(=O)N[C@@H](CC(C)C)C(=O)N[C@@H](CC(C)C)C(=O)N[C@@H](C)C(=O)N[C@@H](CCC(N)=O)C(=O)NCC(=O)N1CCC[C@H]1C(=O)N[C@@H](CO)C(=O)N[C@@H](CO)C(=O)NCC(=O)N[C@@H](C)C(=O)N1CCC[C@H]1C(=O)N1CCC[C@H]1C(=O)N1CCC[C@H]1C(=O)N[C@@H](CO)C(N)=O)C(C)C [Compound 6] | 0.016 nM | – | 0.0049 nM | 0.005 nM | 0.005 nM
3 | CC[C@H](C)[C@H](NC(=O)[C@H](CO)NC(=O)[C@H](Cc1ccc(O)cc1)NC(=O)[C@H](CC(=O)O)NC(=O)[C@H](CO)NC(=O)[C@@H](NC(=O)[C@H](Cc1ccccc1)NC(=O)[C@@H](NC(=O)CNC(=O)[C@H](CCC(=O)O)NC(=O)C(C)(C)NC(=O)[C@@H](N)Cc1ccc(O)cc1)[C@@H](C)O)[C@@H](C)O)C(=O)N[C@@H](Cc1ccc(O)cc1)C(=O)N[C@@H](CC(C)C)C(=O)N[C@@H](CC(=O)O)C(=O)N[C@@H](CCCCN)C(=O)N[C@@H](CCCCNC(=O)COCCOCCNC(=O)COCCOCCNC(=O)[C@H](CN)NC(=O)CCCCCCCCCCCCCCCCC(=O)O)C(=O)N[C@@H](C)C(=O)N[C@@H](CCC(N)=O)C(=O)N[C@@H](CCCNC(=N)N)C(=O)N[C@@H](C)C(=O)N[C@@H](Cc1ccccc1)C(=O)N[C@H](C(=O)N[C@@H](CCC(=O)O)C(=O)N[C@@H](Cc1c[nH]c2ccccc12)C(=O)N[C@@H](CC(C)C)C(=O)N[C@@H](CC(C)C)C(=O)N[C@@H](C)C(=O)N[C@@H](CCC(N)=O)C(=O)NCC(=O)N1CCC[C@H]1C(=O)N[C@@H](CO)C(=O)N[C@@H](CO)C(=O)NCC(=O)N[C@@H](C)C(=O)N1CCC[C@H]1C(=O)N1CCC[C@H]1C(=O)N1CCC[C@H]1C(=O)N[C@@H](CO)C(N)=O)C(C)C [Compound 7] (H-Y[Aib]EGTFTSDYSIYLDKK([AEEA-AEEA-Dap-C18 diacid])AQRAFVEWLLAQGPSSGAPPPS-NH2) | 0.012 nM | – | 0.011 nM | – | –
4 | CC[C@H](C)[C@H](NC(=O)[C@H](CO)NC(=O)[C@H](Cc1ccc(O)cc1)NC(=O)[C@H](CC(=O)O)NC(=O)[C@H](CO)NC(=O)[C@@H](NC(=O)[C@H](Cc1ccccc1)NC(=O)[C@@H](NC(=O)CNC(=O)[C@H](CCC(=O)O)NC(=O)[C@@H](C)NC(=O)[C@@H](N)Cc1ccc(O)cc1)[C@@H](C)O)[C@@H](C)O)C(=O)N[C@@H](Cc1ccc(O)cc1)C(=O)N[C@@H](CC(C)C)C(=O)N[C@@H](CC(=O)O)C(=O)N[C@@H](CCCCN)C(=O)N[C@@H](CCCCNC(=O)COCCOCCNC(=O)COCCOCCNC(=O)CC[C@H](NC(=O)CCCCCCCCCCCCCCCCC(=O)O)C(=O)O)C(=O)N[C@@H](C)C(=O)N[C@@H](CCC(N)=O)C(=O)N[C@@H](CCCNC(=N)N)C(=O)N[C@@H](C)C(=O)N[C@@H](Cc1ccccc1)C(=O)N[C@H](C(=O)N[C@@H](CCC(=O)O)C(=O)N[C@@H](Cc1c[nH]c2ccccc12)C(=O)N[C@@H](CC(C)C)C(=O)N[C@@H](CC(C)C)C(=O)N[C@@H](C)C(=O)N[C@@H](CCC(N)=O)C(=O)NCC(=O)N1CCC[C@H]1C(=O)N[C@@H](CO)C(=O)N[C@@H](CO)C(=O)NCC(=O)N[C@@H](C)C(=O)N1CCC[C@H]1C(=O)N1CCC[C@H]1C(=O)N1CCC[C@H]1C(=O)N[C@@H](CO)C(N)=O)C(C)C [Compound 9] (H-Y[dA]EGTFTSDYSIYLDKK([AEEA-AEEA-γGlu-C18 diacid])AQRAFVEWLLAQGPSSGAPPPS-NH2) | 0.038 nM | 0.039 nM | 0.0088 nM | 0.009 nM | 0.009 nM
5 | CC[C@H](C)[C@H](NC(=O)[C@H](CO)NC(=O)[C@H](Cc1ccc(O)cc1)NC(=O)[C@H](CC(=O)O)NC(=O)[C@H](CO)NC(=O)[C@@H](NC(=O)[C@H](Cc1ccccc1)NC(=O)[C@@H](NC(=O)CNC(=O)[C@H](CCC(=O)O)NC(=O)C(C)(C)NC(=O)[C@@H](N)Cc1ccc(O)cc1)[C@@H](C)O)[C@@H](C)O)C(=O)N[C@@H](Cc1ccc(O)cc1)C(=O)N[C@@H](CC(C)C)C(=O)N[C@@H](CCC(=O)O)C(=O)N[C@@H](CCCCN)C(=O)N[C@@H](CCCCNC(=O)COCCOCCNC(=O)COCCOCCNC(=O)CC[C@H](NC(=O)CCCCCCCCCCCCCCCCC(=O)O)C(=O)O)C(=O)N[C@@H](C)C(=O)N[C@@H](C)C(=O)N[C@@H](CCCCN)C(=O)N[C@@H](CCC(=O)O)C(=O)N[C@@H](Cc1ccccc1)C(=O)N[C@H](C(=O)N[C@@H](CCC(=O)O)C(=O)N[C@@H](Cc1c[nH]c2ccccc12)C(=O)N[C@@H](CC(C)C)C(=O)N[C@@H](CC(C)C)C(=O)N[C@@H](CO)C(=O)N[C@@H](C)C(=O)NCC(=O)N1CCC[C@H]1C(=O)N[C@@H](CO)C(=O)N[C@@H](CO)C(=O)NCC(=O)N[C@@H](C)C(=O)N1CCC[C@H]1C(=O)N1CCC[C@H]1C(=O)N1CCC[C@H]1C(=O)N[C@@H](CO)C(N)=O)C(C)C [Compound 10] (H-Y[Aib]EGTFTSDYSIYLEKK([AEEA-AEEA-γGlu-C18 diacid])AAKEFVEWLLSAGPSSGAPPPS-NH2) | 0.028 nM | 0.029 nM | 0.016 nM | 0.016 nM | –
